Reference: PubChem BioAssay (NCI)
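Five concentrations, 48 hours, 96-well plates. TGI denotes the concentration required for complete inhibition of growth.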

Columns and labels:
Assay in all cases: NCI tumour cell line growth inhibition, 48 h
[1] = tested on: HOP-62 NSCLC
[2] = tested on: SNB-75 CNS
[3] = tested on: HL-60(TB) leukemia
[4] = tested on: SK-MEL-5 melanoma
[5] = tested on: A549 NSCLC
[6] = tested on: NCI-H23 lung
[7] = tested on: HT29 colon
[8] = tested on: SK-MEL-2 melanoma
[9] = tested on: A498 renal
[10] = tested on: TK-10 renal
[11] = tested on: PC-3 prostate
[12] = tested on: SW-620 colon
[13] = tested on: OVCAR-4 ovarian
[14] = tested on: MDA-MB-435
[15] = tested on: OVCAR-3 ovarian
[16] = tested on: DU-145 prostate
[17] = tested on: RXF 393 renal
[18] = tested on: U251 CNS
[19] = tested on: BT-549 breast
[20] = tested on: MOLT-4 leukemia
[21] = tested on: SF-295 CNS
[22] = tested on: CCRF-CEM leukemia
[23] = tested on: UACC-257 melanoma
[24] = tested on: NCI/ADR-RES ovarian
[25] = tested on: MDA-MB-231 breast
[26] = tested on: UO-31 renal
[27] = tested on: UACC-62 melanoma
[28] = tested on: HCT-15 colon
[29] = tested on: OVCAR-5 ovarian
[30] = tested on: SF-268 CNS
[31] = tested on: LOX IMVI melanoma
[32] = tested on: NCI-H226 lung
[33] = tested on: NCI-H460 lung
[34] = tested on: T-47D breast
[35] = tested on: IGROV1 ovarian
[36] = tested on: EKVX NSCLC
[37] = tested on: SN12C renal
[38] = tested on: MDA-N
[39] = tested on: HS 578T breast
[40] = tested on: HCC-2998 colon
[41] = tested on: SK-OV-3 ovarian
[42] = tested on: SK-MEL-28 melanoma
[43] = tested on: M14 melanoma
[44] = tested on: HOP-92 NSCLC
[45] = tested on: CAKI-1 renal
[46] = tested on: MCF7 breast
[47] = tested on: K-562 leukemia
[48] = tested on: SR leukemia
[49] = tested on: SF-539 CNS
[50] = tested on: HCT-116 colon
[51] = tested on: MALME-3M melanoma
[52] = tested on: OVCAR-8 ovarian
[53] = tested on: COLO 205 colon
[54] = tested on: RPMI-8226 leukemia
[55] = tested on: 786-0 renal
[56] = tested on: SNB-19 CNS
[57] = tested on: KM12 colon
[58] = tested on: ACHN renal
[59] = tested on: NCI-H522 lung

Structure (SMILES): CO/N=C1\CC(NC(=O)C(F)(F)F)c2ccsc21 (stereo not given)
- TGI [1]: > 100 µM
- TGI [2]: > 100 µM
- TGI [3]: > 100 µM
- TGI [4]: > 100 µM
- TGI [5]: > 100 µM
- TGI [6]: > 100 µM
- TGI [7]: > 100 µM
- TGI [8]: > 100 µM
- TGI [9]: > 100 µM
- TGI [10]: > 100 µM
- TGI [11]: > 100 µM
- TGI [12]: > 100 µM
- TGI [13]: > 100 µM
- TGI [14]: > 100 µM
- TGI [15]: > 100 µM
- TGI [16]: > 100 µM
- TGI [17]: > 100 µM
- TGI [18]: > 100 µM
- TGI [19]: > 100 µM
- TGI [20]: > 100 µM
- TGI [21]: > 100 µM
- TGI [22]: > 100 µM
- TGI [23]: > 100 µM
- TGI [24]: > 100 µM
- TGI [25]: > 100 µM
- TGI [26]: > 100 µM
- TGI [27]: > 100 µM
- TGI [28]: > 100 µM
- TGI [29]: > 100 µM
- TGI [30]: > 100 µM
- TGI [31]: > 100 µM
- TGI [32]: > 100 µM
- TGI [33]: > 100 µM
- TGI [34]: > 100 µM
- TGI [35]: > 100 µM
- TGI [36]: > 100 µM
- TGI [37]: > 100 µM
- TGI [38]: > 100 µM
- TGI [39]: > 100 µM
- TGI [40]: > 100 µM
- TGI [41]: > 100 µM
- TGI [42]: > 100 µM
- TGI [43]: > 100 µM
- TGI [44]: > 100 µM
- TGI [45]: > 100 µM
- TGI [46]: > 100 µM
- TGI [47]: > 100 µM
- TGI [48]: > 100 µM
- TGI [49]: > 100 µM
- TGI [50]: > 100 µM
- TGI [51]: > 100 µM
- TGI [52]: > 100 µM
- TGI [53]: > 100 µM

Structure (SMILES): c1c[nH]c(-c2cccc3nsnc23)c1
- TGI [1]: > 100 µM
- TGI [2]: > 100 µM
- TGI [4]: > 100 µM
- TGI [5]: > 100 µM
- TGI [6]: > 100 µM
- TGI [7]: > 100 µM
- TGI [8]: > 100 µM
- TGI [9]: > 100 µM
- TGI [10]: > 100 µM
- TGI [54]: > 100 µM
- TGI [11]: > 100 µM
- TGI [12]: > 100 µM
- TGI [13]: > 100 µM
- TGI [14]: > 100 µM
- TGI [16]: > 100 µM
- TGI [55]: > 100 µM
- TGI [17]: > 100 µM
- TGI [18]: > 100 µM
- TGI [19]: > 100 µM
- TGI [20]: > 100 µM
- TGI [21]: > 100 µM
- TGI [56]: > 100 µM
- TGI [57]: > 100 µM
- TGI [22]: > 100 µM
- TGI [23]: > 100 µM
- TGI [24]: > 100 µM
- TGI [25]: > 100 µM
- TGI [26]: > 100 µM
- TGI [27]: > 100 µM
- TGI [28]: > 100 µM
- TGI [29]: > 100 µM
- TGI [30]: > 100 µM
- TGI [31]: > 100 µM
- TGI [32]: > 100 µM
- TGI [33]: > 100 µM
- TGI [34]: > 100 µM
- TGI [35]: > 100 µM
- TGI [36]: > 100 µM
- TGI [58]: > 100 µM
- TGI [37]: > 100 µM
- TGI [38]: > 100 µM
- TGI [40]: > 100 µM
- TGI [59]: > 100 µM
- TGI [41]: > 100 µM
- TGI [42]: > 100 µM
- TGI [43]: > 100 µM
- TGI [45]: > 100 µM
- TGI [46]: > 100 µM
- TGI [47]: > 100 µM
- TGI [48]: > 100 µM
- TGI [49]: > 100 µM
- TGI [50]: > 100 µM
- TGI [51]: > 100 µM
- TGI [52]: > 100 µM
- TGI [53]: > 100 µM

Structure (SMILES): O=c1[nH]c(NCc2ccncc2)nc2nc[nH]c12
- TGI [1]: > 100 µM
- TGI [2]: > 100 µM
- TGI [4]: > 100 µM
- TGI [5]: > 100 µM
- TGI [6]: > 100 µM
- TGI [7]: > 100 µM
- TGI [8]: > 100 µM
- TGI [10]: > 100 µM
- TGI [54]: > 100 µM
- TGI [11]: > 100 µM
- TGI [12]: > 100 µM
- TGI [13]: > 100 µM
- TGI [14]: > 100 µM
- TGI [15]: > 100 µM
- TGI [16]: > 100 µM
- TGI [55]: > 100 µM
- TGI [17]: > 100 µM
- TGI [18]: > 100 µM
- TGI [19]: > 100 µM
- TGI [20]: > 100 µM
- TGI [21]: > 100 µM
- TGI [56]: > 100 µM
- TGI [57]: > 100 µM
- TGI [22]: > 100 µM
- TGI [23]: > 100 µM
- TGI [24]: > 100 µM
- TGI [25]: > 100 µM
- TGI [26]: > 100 µM
- TGI [27]: > 100 µM
- TGI [28]: > 100 µM
- TGI [29]: > 100 µM
- TGI [30]: > 100 µM
- TGI [31]: > 100 µM
- TGI [32]: > 100 µM
- TGI [33]: > 100 µM
- TGI [34]: > 100 µM
- TGI [35]: > 100 µM
- TGI [36]: > 100 µM
- TGI [58]: > 100 µM
- TGI [37]: > 100 µM
- TGI [38]: > 100 µM
- TGI [39]: > 100 µM
- TGI [40]: > 100 µM
- TGI [59]: > 100 µM
- TGI [41]: > 100 µM
- TGI [43]: > 100 µM
- TGI [44]: > 100 µM
- TGI [45]: > 100 µM
- TGI [46]: > 100 µM
- TGI [47]: > 100 µM
- TGI [50]: > 100 µM
- TGI [51]: > 100 µM
- TGI [52]: > 100 µM
- TGI [53]: > 100 µM

Structure (SMILES): CN1CSC(=S)N(c2cccc(C(F)(F)F)c2)C1
- TGI [1]: 70 µM
- TGI [2]: > 100 µM
- TGI [3]: 59 µM
- TGI [4]: 31.4 µM
- TGI [5]: 73 µM
- TGI [6]: 33.2 µM
- TGI [7]: 47.7 µM
- TGI [8]: 43.3 µM
- TGI [9]: 82.1 µM
- TGI [10]: 72.3 µM
- TGI [54]: 39.4 µM
- TGI [11]: 69.1 µM
- TGI [12]: > 100 µM
- TGI [13]: 37.5 µM
- TGI [14]: 51.9 µM
- TGI [15]: 46.7 µM
- TGI [16]: > 100 µM
- TGI [55]: 73.6 µM
- TGI [17]: > 100 µM
- TGI [18]: > 100 µM
- TGI [19]: 44.2 µM
- TGI [20]: 57 µM
- TGI [21]: 51.2 µM
- TGI [56]: 61 µM
- TGI [57]: 50.7 µM
- TGI [22]: > 100 µM
- TGI [23]: 50.7 µM
- TGI [24]: 73.4 µM
- TGI [26]: 45.3 µM
- TGI [27]: 31.7 µM
- TGI [28]: 38 µM
- TGI [29]: 37 µM
- TGI [30]: 53 µM
- TGI [31]: 43.1 µM
- TGI [32]: 61.8 µM
- TGI [33]: 42.6 µM
- TGI [34]: > 100 µM
- TGI [35]: 37.3 µM
- TGI [36]: 67.7 µM
- TGI [58]: 36.5 µM
- TGI [37]: > 100 µM
- TGI [38]: 91.2 µM
- TGI [39]: 82.2 µM
- TGI [40]: 32.9 µM
- TGI [59]: 30.8 µM
- TGI [41]: > 100 µM
- TGI [42]: 52 µM
- TGI [43]: 33.8 µM
- TGI [44]: 50.5 µM
- TGI [45]: 74 µM
- TGI [46]: 33.3 µM
- TGI [47]: 59.6 µM
- TGI [48]: 52.5 µM
- TGI [49]: 52 µM
- TGI [50]: > 100 µM
- TGI [51]: 35.2 µM
- TGI [52]: 74.5 µM
- TGI [53]: 37.2 µM
